Tests used:
[1] = system: HCT-15; assay: Cell viability by XTT; type: cell-based; conditions: HCT-15, single dose 10 μM, four days
Protocol: (§1) Compounds were solubilized at […] in DMSO and were stored at −20° C. Test compounds were initially tested at a single concentration of 10 μM and a subset of test compounds were further tested in selected cell lines using a six concentration dose response curve.
(§2) Cell Preparation Cancer cell lines were passaged in T-75 flasks prior to use in the assay in cell culture medium recommended by the ATCC (American Type Culture Collection; Table 6). On the day preceding the assay, the cells were split 1:2 to assure they were in an exponential growth phase at the time of compound treatment. Total cell and viability quantification was performed using a hemocytometer and Trypan Blue dye exclusion. […] The cells were resuspended at the appropriate cell per mL (Table 6) in tissue culture medium and added to the microtitre plates in a volume of 100 μL. Colon cell lines were incubated overnight at 37° C./5% CO2 to allow for cell adherence to the plates.
(§3) Plate Format: Each plate contains cell control wells (cells only), drug calorimetric control wells (drug only) as well as experimental wells (drug plus cells). Samples were tested in triplicate at a concentration of 10 μM and five half-logarithmic dilutions.
(§4) Cell Viability by XTT: Following incubation at 37° C. in a 5% CO2 incubator for four days, the test plates were stained with the tetrazolium dye XTT (2,3-bis(2-methoxy-4-nitro-5-sulfophenyl)-5-[(phenylamino)carbonyl]-2H-tetrazolium hydroxide). XTT-tetrazolium was metabolized by the mitochondrial enzymes of metabolically active cells to a soluble formazan product. XTT solution was prepared daily as a stock of 1 mg/mL in RPMI1640. Phenazine methosulfate (PMS) solution was prepared at 0.15 mg/mL in phosphate buffered saline (PBS) and stored in the dark at −20° C. XTT/PMS stock was prepared immediately before use by adding 40 μL of PMS per mL of XTT solution. Fifty (50) microlitres of XTT/PMS was added to each well of the plate and the plate was reincubated for 4 hours at 37° C. Plates were sealed with adhesive plate sealers and shaken gently or inverted several times to mix the soluble formazan product and the plate was read spectrophotometrically at 450/650 nm with a Molecular Devices Vmax plate reader. […] An Average Response Factor (ARF) was calculated for each compound by averaging the ten Percentage of Control values for the cell lines. […] Deviations below 100% control indicate activity. The concentration of each tested compound is 10 μM.

[2] = system: HL-60; assay: Cell viability by XTT; type: cell-based; conditions: HL-60, single dose 10 μM, four days
Protocol: as §1, §2, §3, §4

[3] = system: UACC-257; assay: NCI In Vitro Cell Line Screening (SRB); type: cell-based, human; conditions: UACC-257, Melanoma, 48 h
[4] = system: HT29; assay: cells
Protocol: as §1, §2, §3, §4

[5] = system: Jurkat; assay: Cell viability by XTT
Protocol: as §1, §2, §3, §4

[6] = system: Caco-2; assay: Cell viability by XTT
Protocol: as §1, §2, §3, §4

[7] = system: THP-1; assay: Cell viability by XTT
Protocol: as §1, §2, §3, §4

For `CC(C)(C)c1ccc(NC(=O)[C@H](CCCCN)NC(=O)OCC2c3ccccc3-c3ccccc32)cc1` [Compound 105, (S)-[5-AMINO-1-(4-TERT-BUTYL-PHENYLCARBAMOYL)-PENTYL]-CARBAMIC ACID 9H-FLUOREN-9-YLMETHYL ESTER], the “Percentage of Cell Control” value [1] was 85.6%, the “Percentage of Cell Control” value [2] was 19.6% and the GI50 ([3]; Homo sapiens) was 1.75 µM. The TGI [3] was 3.70 µM, the “Percentage of Cell Control” value ([4]; HT29, single dose 10 μM, four days) was 13.8% and the CC50 ([4]; Homo sapiens, HT-29, read-out: Activity (TC50)) was 8.5 µM. The CC50 ([5]; Homo sapiens, read-out: Activity (TC50)) was 2.5 µM, the “Percentage of Cell Control” value ([5]; single dose 10 μM, four days) was 23.5% and the “Percentage of Cell Control” value ([6]; Caco-2, single dose 10 μM, four days) was 0%. For the same molecule, the CC50 ([6]; Homo sapiens, Caco-2, read-out: Activity (TC50)) was 8.6 µM, the CC50 ([7]; Homo sapiens, THP-1, read-out: Activity (TC50)) was 6.7 µM and the “Percentage of Cell Control” value ([7]; THP-1, single dose 10 μM, four days) was 0%.
